Experimental data reported in PMC7371993, “Targeting of the C-Type Lectin Receptor Langerin Using Bifunctional Mannosylated Antigens” (Frontiers in Cell and Developmental Biology, 2020).

Each compound was assayed against T1, Langerin S-ECD (Homo sapiens, UniProt Q9UJ71) (assay: SPR direct interaction assay on oriented Langerin S-ECD surface). Settings: Langerin S-ECD captured via StreptagII on CM3 chip, flow 30 μL/min, same running buffer pH 8, 1:1 fit, apparent Kd, read-out: Kdapp.
T1 construct: The ECD of Langerin (residues 68–328) was overexpressed and purified as previously described; made in house
T1 sequence (Q9UJ71 68-328): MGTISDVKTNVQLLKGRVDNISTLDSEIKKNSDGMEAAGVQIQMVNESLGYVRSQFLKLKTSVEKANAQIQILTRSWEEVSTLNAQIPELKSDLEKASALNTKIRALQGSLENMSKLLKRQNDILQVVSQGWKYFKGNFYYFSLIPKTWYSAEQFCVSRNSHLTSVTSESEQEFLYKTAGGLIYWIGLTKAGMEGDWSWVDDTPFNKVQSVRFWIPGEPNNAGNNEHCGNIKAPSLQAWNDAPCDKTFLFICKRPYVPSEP
Type: binding
Experimental: To determine the apparent Kd value, direct interaction experiments were executed on a T200 Biacore with a CM3 series S sensor chip. The Langerin ECD in this assay was functionalized with a […] on the N-terminus (Langerin S-ECD), for oriented capture on the sensor chip surface. The flow cells were functionalized with streptactin protein after EDC/NHS activation. Control flow cell 1 was functionalized with BSA, whereas another flow cell was functionalized with 100 μg/mL Langerin S-ECD via tag-specific capture and simultaneous amine coupling as previously described ([Porkolab et al., 2020]). An approximate density of about 2.609 RU was achieved on the chip surface. The compounds were injected in increasing concentrations with a flow rate of 30 μL/min in the previously mentioned running buffer. The data were analyzed in Biacore BIAevaluation software for direct interaction 1:1 calculation to determine the apparent Kd value.

**Q.** Which Kd does the source give for `CC(=O)N[C@@H](CCCCn1cc(CO[C@H]2O[C@H](CO[C@H]3O[C@H](CO)[C@@H](O)[C@H](O)[C@@H]3O)[C@@H](O)[C@H](O)[C@@H]2O)nn1)C(=O)NCC(=O)N[C@@H](CCCCn1cc(CO[C@H]2O[C@H](CO[C@H]3O[C@H](CO)[C@@H](O)[C@H](O)[C@@H]3O)[C@@H](O)[C@H](O)[C@@H]2O)nn1)C(=O)NCC(=O)N[C@@H](CCCCN)C(N)=O` [Ligand D2] here?
**A.** 16 µM

**Q.** For `CC(=O)N[C@@H](CCCCn1cc(CO[C@H]2O[C@H](CO[C@H]3O[C@H](CO)[C@@H](O)[C@H](O)[C@@H]3O)[C@@H](O)[C@H](O[C@H]3O[C@H](CO)[C@@H](O)[C@H](O)[C@@H]3O)[C@@H]2O)nn1)C(=O)NCC(=O)N[C@@H](CCCCn1cc(CO[C@H]2O[C@H](CO[C@H]3O[C@H](CO)[C@@H](O)[C@H](O)[C@@H]3O)[C@@H](O)[C@H](O[C@H]3O[C@H](CO)[C@@H](O)[C@H](O)[C@@H]3O)[C@@H]2O)nn1)C(=O)NCC(=O)N[C@@H](CCCCN)C(N)=O` [Ligand E2], which Kd is on record?
**A.** 278 µM

The compounds below were run against T2, Langerin ECD (Homo sapiens, UniProt Q9UJ71) (assay: SPR competition (inhibition) assay with trimeric Langerin ECD). Settings: Biacore T200, CM3 chip with BSA-Manα1-3[Manα1-6]Man, Langerin ECD 20 μM, 25 mM Tris-HCl pH 8, 150 mM NaCl, 4 mM CaCl2, 0.05% P20, four parameter fit.
T2 construct: The ECD of Langerin (residues 68–328) was overexpressed and purified as previously described; made in house
T2 sequence (Q9UJ71 68-328): as above
Type: binding
Experimental: The ECD of Langerin (residues 68–328) was overexpressed and purified as previously described ([Thépaut et al., 2009]). The SPR competition experiments were performed on a Biacore T200 using a CM3 series S sensor chip. Control flow cell 1 was functionalized with bovine serum albumin (BSA), whereas flow cell 2 and 3 were treated with 60 μg/mL BSA-Man α1-3[Manα1-6]Man (Dextra) in 10 mM NaOAc pH4 (final densities 2.062 and 2.183 RU, respectively). All flow cells were blocked with ethanolamine. […] Langerin ECD (20 μM) was injected at 5 μL/min, with or without inhibitor at increasing concentrations. The data were analyzed in Biacore BIAevaluation software using four parameter equation, and the IC50 was determined.

**Q.** How did the IC50 turn out when `CC(=O)N[C@@H](CCCCn1cc(CO[C@H]2O[C@H](CO)[C@@H](O)[C@H](O)[C@@H]2O[C@H]2O[C@H](CO)[C@@H](O)[C@H](O)[C@@H]2O)nn1)C(=O)NCC(=O)N[C@@H](CCCCN)C(N)=O` [Ligand B1] was run?
**A.** 4140 µM

**Q.** How did the IC50 turn out when `CC(=O)N[C@@H](CCCCn1cc(CO[C@H]2O[C@H](CO)[C@@H](O)[C@H](O[C@H]3O[C@H](CO)[C@@H](O)[C@H](O)[C@@H]3O)[C@@H]2O)nn1)C(=O)NCC(=O)N[C@@H](CCCCn1cc(CO[C@H]2O[C@H](CO)[C@@H](O)[C@H](O[C@H]3O[C@H](CO)[C@@H](O)[C@H](O)[C@@H]3O)[C@@H]2O)nn1)C(=O)NCC(=O)N[C@@H](CCCCN)C(N)=O` [Ligand C2] was run?
**A.** 1420 µM

**Q.** With `CC(=O)N[C@@H](CCCCn1cc(CO[C@H]2O[C@H](CO)[C@@H](O)[C@H](O)[C@@H]2O[C@H]2O[C@H](CO)[C@@H](O)[C@H](O)[C@@H]2O)nn1)C(=O)NCC(=O)N[C@@H](CCCCn1cc(CO[C@H]2O[C@H](CO)[C@@H](O)[C@H](O)[C@@H]2O[C@H]2O[C@H](CO)[C@@H](O)[C@H](O)[C@@H]2O)nn1)C(=O)NCC(=O)N[C@@H](CCCCN)C(N)=O` [Ligand B2] as the compound, how does the IC50 read?
**A.** 181 ± 4 µM

**Q.** With `CC(=O)N[C@@H](CCCCn1cc(CO[C@H]2O[C@H](CO)[C@@H](O)[C@H](O)[C@@H]2O)nn1)C(=O)NCC(=O)N[C@@H](CCCCn1cc(CO[C@H]2O[C@H](CO)[C@@H](O)[C@H](O)[C@@H]2O)nn1)C(=O)NCC(=O)N[C@@H](CCCCN)C(N)=O` [Ligand A2] as the compound, how does the IC50 read?
**A.** 2420 ± 30 µM
